Data as given in ChEMBL document CHEMBL1201862, “PubChem BioAssay data set” (2004).
The source made the active and inactive calls.

Key:
[1] = target: T1, Corticotropin-releasing factor receptor 2/Corticotropin-releasing factor-binding protein (Homo sapiens, UniProt P24387+Q13324); assay: Dose Response confirmation of uHTS hits for small molecule antagonists of the CRF-binding protein and CRF-R2 receptor complex.; assay type: functional; conditions: read-out: IC50_Mean
T1 sequence (Q13324 whole entry): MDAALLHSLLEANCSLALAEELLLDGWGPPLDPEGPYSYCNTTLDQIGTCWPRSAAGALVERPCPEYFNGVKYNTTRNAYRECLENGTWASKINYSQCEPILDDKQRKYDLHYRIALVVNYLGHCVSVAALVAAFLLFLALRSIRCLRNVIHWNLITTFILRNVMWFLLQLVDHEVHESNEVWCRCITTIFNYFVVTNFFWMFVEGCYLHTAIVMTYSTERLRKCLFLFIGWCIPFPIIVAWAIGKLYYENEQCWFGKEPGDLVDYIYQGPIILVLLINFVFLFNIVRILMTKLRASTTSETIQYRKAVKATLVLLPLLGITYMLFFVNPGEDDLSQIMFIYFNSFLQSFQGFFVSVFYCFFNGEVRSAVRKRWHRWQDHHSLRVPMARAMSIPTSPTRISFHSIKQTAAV
T1 sequence (P24387 whole entry): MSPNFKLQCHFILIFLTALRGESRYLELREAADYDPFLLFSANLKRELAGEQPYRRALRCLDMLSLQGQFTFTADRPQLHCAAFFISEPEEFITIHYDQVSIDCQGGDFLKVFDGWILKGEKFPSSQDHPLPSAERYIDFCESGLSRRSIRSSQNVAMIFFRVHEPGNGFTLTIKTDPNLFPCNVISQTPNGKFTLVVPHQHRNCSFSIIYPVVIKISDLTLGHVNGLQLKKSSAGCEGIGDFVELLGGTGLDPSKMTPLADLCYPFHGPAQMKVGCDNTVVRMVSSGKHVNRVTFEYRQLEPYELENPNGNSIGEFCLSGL

[2] = blockers of CRF-binding protein–CRF-R2 complex – cell-based, uHTS hits, 384-well, dose response (AID 651639); assay type: functional, Homo sapiens; conditions: read-out: IC50_Mean
[3] = Luminescence Cell-Based Dose Retest to Confirm Inhibitors of Cancer Stem Cells. [Related pubchem assays (depositor defined):AID2717, AID2721]; assay type: functional; conditions: Homo sapiens
[4] = target: T1, Corticotropin-releasing factor receptor 2/Corticotropin-releasing factor-binding protein; assay: activators of CRF receptor 2 with binding protein – uHTS hits, confirmation (AID 602473); assay type: functional; conditions: read-out: EC50_Mean
[5] = bead-based luminescence quenchers, dual-tagged ARNT – biochemical, AlphaScreen, cherry-pick, artefact control for ARNT-TACC3 interaction inhibitor project, dose response (AID 651705); assay type: functional;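 further: AlphaScreen bead proximity signal that flags compounds interfering with the detection technology; potency reflects signal decrease which marks the compound as an assay artifact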
[6] = microbe, parasite or virus in culture; assay type: functional; conditions: Mycobacterium tuberculosis
Beta-galactosidase = Beta-galactosidase (Escherichia coli, UniProt Q8VNN2); assay: Dose response counterscreen for EBI2 assay utilizing the enzyme, b-galactosidase.; assay type: functional
Sequence of Beta-galactosidase (Q8VNN2 whole entry): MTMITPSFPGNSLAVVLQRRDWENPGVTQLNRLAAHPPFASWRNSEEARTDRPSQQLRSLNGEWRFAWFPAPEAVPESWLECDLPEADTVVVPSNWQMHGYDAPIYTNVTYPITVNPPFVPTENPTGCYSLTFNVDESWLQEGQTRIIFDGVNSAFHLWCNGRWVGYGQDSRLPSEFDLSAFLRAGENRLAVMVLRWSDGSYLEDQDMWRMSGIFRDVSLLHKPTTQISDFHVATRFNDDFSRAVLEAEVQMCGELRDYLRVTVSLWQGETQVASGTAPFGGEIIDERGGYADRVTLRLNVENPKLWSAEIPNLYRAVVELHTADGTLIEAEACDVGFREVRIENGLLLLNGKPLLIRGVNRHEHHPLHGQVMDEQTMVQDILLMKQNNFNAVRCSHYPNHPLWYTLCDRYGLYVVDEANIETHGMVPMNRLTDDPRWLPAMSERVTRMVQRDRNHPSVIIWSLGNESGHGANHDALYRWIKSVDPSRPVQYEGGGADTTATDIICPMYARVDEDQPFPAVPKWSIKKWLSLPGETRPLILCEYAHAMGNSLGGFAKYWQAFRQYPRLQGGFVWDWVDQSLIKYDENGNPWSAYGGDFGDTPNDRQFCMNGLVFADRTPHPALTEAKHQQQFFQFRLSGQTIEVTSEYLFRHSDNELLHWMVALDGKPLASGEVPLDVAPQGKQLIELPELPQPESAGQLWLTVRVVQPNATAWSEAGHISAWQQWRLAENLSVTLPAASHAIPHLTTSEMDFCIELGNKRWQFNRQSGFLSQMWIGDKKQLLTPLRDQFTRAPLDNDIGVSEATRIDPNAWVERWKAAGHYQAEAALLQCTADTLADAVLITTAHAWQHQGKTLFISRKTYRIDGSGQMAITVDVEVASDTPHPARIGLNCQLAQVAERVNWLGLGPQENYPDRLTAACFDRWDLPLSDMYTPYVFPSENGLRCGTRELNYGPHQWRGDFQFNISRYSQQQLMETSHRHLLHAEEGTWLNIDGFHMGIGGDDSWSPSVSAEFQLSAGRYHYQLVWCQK

[7] = target: Ras and Rab interactor 1/Tyrosine-protein kinase ABL1 (Homo sapiens, UniProt P00519+Q13671); assay type: functional;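 further: biochemical TR-FRET dose-response test measuring inhibition of binding between Rin1 and Abl proteins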
Sequence of Ras and Rab interactor 1/Tyrosine-protein kinase ABL1 (P00519 whole entry): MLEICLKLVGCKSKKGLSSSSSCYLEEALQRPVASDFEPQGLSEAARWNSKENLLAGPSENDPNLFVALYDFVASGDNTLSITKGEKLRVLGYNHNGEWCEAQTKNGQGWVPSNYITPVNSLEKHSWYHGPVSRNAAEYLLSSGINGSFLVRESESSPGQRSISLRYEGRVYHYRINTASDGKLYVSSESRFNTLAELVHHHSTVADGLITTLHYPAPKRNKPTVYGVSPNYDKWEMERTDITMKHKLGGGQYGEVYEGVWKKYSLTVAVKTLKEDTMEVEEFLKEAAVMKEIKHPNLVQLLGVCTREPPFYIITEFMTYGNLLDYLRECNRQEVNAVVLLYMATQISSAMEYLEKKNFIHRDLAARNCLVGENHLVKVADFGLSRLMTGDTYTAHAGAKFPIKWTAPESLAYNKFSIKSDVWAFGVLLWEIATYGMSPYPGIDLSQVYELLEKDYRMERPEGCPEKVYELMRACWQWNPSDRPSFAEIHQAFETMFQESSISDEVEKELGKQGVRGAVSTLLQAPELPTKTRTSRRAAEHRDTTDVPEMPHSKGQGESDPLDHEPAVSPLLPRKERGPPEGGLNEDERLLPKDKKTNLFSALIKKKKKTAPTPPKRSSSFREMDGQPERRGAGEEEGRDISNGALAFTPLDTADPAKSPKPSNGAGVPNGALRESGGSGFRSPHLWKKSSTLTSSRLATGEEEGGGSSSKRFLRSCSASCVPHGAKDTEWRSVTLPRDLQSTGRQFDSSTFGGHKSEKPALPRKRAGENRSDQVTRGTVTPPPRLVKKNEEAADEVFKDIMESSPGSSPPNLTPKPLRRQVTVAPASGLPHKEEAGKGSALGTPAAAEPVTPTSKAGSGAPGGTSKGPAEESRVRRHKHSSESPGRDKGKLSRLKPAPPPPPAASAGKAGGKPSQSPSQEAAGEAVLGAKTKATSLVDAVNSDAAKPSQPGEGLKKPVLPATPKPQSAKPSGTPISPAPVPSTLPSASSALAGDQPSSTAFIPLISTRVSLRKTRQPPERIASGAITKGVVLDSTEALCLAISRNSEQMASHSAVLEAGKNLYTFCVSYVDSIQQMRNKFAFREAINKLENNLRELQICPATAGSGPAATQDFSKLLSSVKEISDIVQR
Sequence of Ras and Rab interactor 1/Tyrosine-protein kinase ABL1 (Q13671 whole entry): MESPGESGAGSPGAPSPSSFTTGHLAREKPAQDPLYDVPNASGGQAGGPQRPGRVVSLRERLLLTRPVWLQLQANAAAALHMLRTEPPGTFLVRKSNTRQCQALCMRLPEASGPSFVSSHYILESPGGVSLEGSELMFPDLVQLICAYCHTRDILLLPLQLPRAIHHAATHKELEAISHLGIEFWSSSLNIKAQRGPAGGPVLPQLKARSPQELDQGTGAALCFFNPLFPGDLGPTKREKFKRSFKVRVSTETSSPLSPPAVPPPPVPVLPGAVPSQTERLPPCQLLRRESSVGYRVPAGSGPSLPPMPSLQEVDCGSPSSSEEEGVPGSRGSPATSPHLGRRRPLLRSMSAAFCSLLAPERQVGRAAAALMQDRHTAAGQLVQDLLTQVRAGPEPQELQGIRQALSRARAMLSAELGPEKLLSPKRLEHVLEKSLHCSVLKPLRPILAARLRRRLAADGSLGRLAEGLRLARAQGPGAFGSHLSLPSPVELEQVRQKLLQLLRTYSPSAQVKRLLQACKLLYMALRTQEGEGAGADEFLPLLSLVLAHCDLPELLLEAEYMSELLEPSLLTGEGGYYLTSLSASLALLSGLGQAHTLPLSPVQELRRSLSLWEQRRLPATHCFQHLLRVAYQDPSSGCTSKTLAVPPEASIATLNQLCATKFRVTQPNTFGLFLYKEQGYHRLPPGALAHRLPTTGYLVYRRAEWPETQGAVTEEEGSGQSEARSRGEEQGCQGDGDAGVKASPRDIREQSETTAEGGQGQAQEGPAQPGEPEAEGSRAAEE

Protein Wnt-3a = Protein Wnt-3a (Mus musculus, UniProt P27467); assay: antagonism of Wnt3a pathway luciferase reporter – Wnt-LIGHT cells, luminescence, selectivity assay for Gli-SUFU antagonist project, dose response (AID 651570); assay type: functional; conditions: read-out: IC50_Mean;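 further: Wnt-LIGHT reporter cells stimulated with conditioned medium from Wnt3a-producing cells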
Sequence of Protein Wnt-3a (P27467 whole entry): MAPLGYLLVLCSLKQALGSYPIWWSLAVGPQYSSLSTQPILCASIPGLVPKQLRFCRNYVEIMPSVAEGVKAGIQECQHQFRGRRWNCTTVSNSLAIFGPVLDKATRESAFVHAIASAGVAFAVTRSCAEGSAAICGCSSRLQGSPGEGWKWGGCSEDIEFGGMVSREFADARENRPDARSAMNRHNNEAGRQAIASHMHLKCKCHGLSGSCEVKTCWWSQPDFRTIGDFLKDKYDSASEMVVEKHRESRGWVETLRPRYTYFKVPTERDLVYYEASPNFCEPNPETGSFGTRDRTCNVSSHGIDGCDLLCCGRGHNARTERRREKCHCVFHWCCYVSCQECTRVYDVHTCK

INS1 = assay: INS-1E survival protection against cytokine death – cell-based, luminescence, retest, dose response (AID 449756); assay type: functional; conditions: Rattus norvegicus;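 further: cell death triggered by IL-1 beta plus TNF-alpha plus IFN-gamma mixture; protective hits raise ATP signal compared with cytokine alone wells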
BJ [8] = assay: BJ-TERT fibroblast viability loss – cell-based, RAS-independent, luminescence, dose response (AID 1933); assay type: functional; conditions: Homo sapiens
[9] = DRD fibroblast viability loss – cell-based, non-viral oncogenic, luminescence, dose response (AID 1934); assay type: functional; conditions: Homo sapiens
BJ [10] = assay: cells; assay type: functional, cell-based; conditions: Homo sapiens
BJ [11] = assay: BJ-TERT-LT-ST fibroblast viability loss – cell-based, RAS-independent, luminescence, dose response (AID 1935); assay type: functional; conditions: Homo sapiens;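 further: BJ fibroblasts immortalized with TERT plus LT and ST oncogenes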
[12] = alpha-synuclein stem-loop luciferase translation blockers – H4 neuroglioma cells, luminescence, confirmation (AID 1988); assay type: functional, cell-based
[13] = viability of uninfected HEp-2 cells – cell-based, HTS, cytotoxicity control for RSV inhibitor project, dose response (AID 2410); assay type: functional; conditions: human respiratory syncytial virus
[14] = Luminescence Cell-Based Dose Response HTS to Identify Inhibitors of 5'UTR Stem-Loop Driven Prion Protein mRNA Translation in H4 Neuroglioblastoma Cells. [Related pubchem assays: 1827 (Project Summary), 1813 (Primary HTS)]; assay type: functional
Vero [15] = assay: cells; assay type: functional, cell-based; conditions: Chlorocebus sabaeus
[16] = non-specific 3'UTR reporter inhibition in Clone20-Shn3RL – cell-based, Renilla luciferase, cherry-picked, counter-screen for Shn3 inhibitor project, dose response (AID 624133); assay type: functional
[17] = loss of viability in HepG2 cells – cell-based, CellTiter-Glo, cherry-picked, cytotoxicity control for Shn3 inhibitor project, dose response (AID 624134); assay type: functional
[18] = reduction of Shn3 3'UTR-driven luciferase in osteoblasts – cell-based, Clone20 osteoblasts, firefly luciferase, cherry-picked, dose response (AID 624132); assay type: functional;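 further: firefly luciferase luminescence from reporter carrying the Shn3 3'UTR in osteoblasts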
Vero [19] = assay: cells; assay type: functional; conditions: Chlorocebus sabaeus

With Cc1cc(C)nc(SCc2ccc(C(=O)NNC(=O)Nc3cccc(Cl)c3)cc2)n1 the IC50 [1] was 5.95 µM (active), the IC50 [2] was 11.6 µM (active) and the AC50 [3] was 3.65 µM (active). The EC50 [4] was > 53 µM (inactive).

For c1ccc(-c2n[nH]c(-c3ccccn3)n2)cc1, the AC50 [5] was 116 µM (active) and the CC50 [6] was > 40 µM (active).

With CSc1ccc(CN2CCN(C(=O)COc3ccc(C)cc3)CC2)cc1 the IC50 (Beta-galactosidase) was > 80 µM (inactive).

With CCOCc1nnc(NC(=O)c2c(OC)cccc2OC)s1 the IC50 [7] was 18 µM (inactive).

In the case of COc1ccc(-[n+]2cc(-c3ccc(OC(F)F)cc3)n3c2CCCCC3)cc1, the IC50 (Protein Wnt-3a) is reported as 12.3 µM (active) and the AC50 (INS1) is reported as 2.14 µM (active).

In the case of O=c1[nH]c(=O)n(-c2ccc(F)cc2)c2c1C(C(F)(F)F)(C(F)(F)F)NC(c1ccc(F)cc1)=N2, the EC50 (BJ [8]) is reported as > 150 µM (not active), the EC50 [9] is reported as 25.7 µM (active) and the EC50 (BJ [10]) is reported as 66.7 µM (inconclusive). For the same molecule, the EC50 (BJ [11]) was > 150 µM (not active), the IC50 [2] was 13.2 µM (active) and the AC50 (INS1) was 5.15 µM (active).

For Cc1cc(C(=O)Cn2nnc3ccccc3c2=O)c(C)n1-c1ccccc1F, the EC50 [12] was 9.28 µM (active), the IC50 (cells) was 30.9 µM (active) and the CC50 [13] was 20.4 µM (active). The EC50 [14] was 10.1 µM (active) and the IC50 (Vero [15]) was 6.16 µM (active).

For Cc1cc(C)c(C(N)=O)c(SCC(=O)c2cc(C)n(-c3cc(C)on3)c2C)n1, the AC50 [16] was 0.332 µM (active), the IC50 (Protein Wnt-3a) was 1.8 µM (active) and the AC50 [17] was 1.68 µM (active). For the same molecule, the AC50 [18] was 0.942 µM (active).

With O=C(Nc1ccccc1SCC1CSc2nc3ccccc3c(=O)n21)c1cccc(Cl)c1 (centres undefined) the IC50 (cells) was 10.3 µM (active), the CC50 [13] was 24.7 µM (active) and the CC50 (Vero [19]) was > 25 µM (active). The IC50 (Vero [15]) was 14.9 µM (active).
